Experimental data from PubChem BioAssay (NCI).
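Briefly, cells in 96-well plates were exposed to five compound concentrations for 48 h, and endpoints were estimated by linear interpolation. Abbreviation: GI50, concentration required for 50% inhibition of growth. TGI: total growth inhibition.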

Experiments:
Test in all cases: DTP human tumour cell line panel, 48 h
786-0 renal = system: 786-0 renal
A498 renal = system: A498 renal
A549 NSCLC = system: A549 NSCLC
ACHN renal = system: ACHN renal
BT-549 breast = system: BT-549 breast
CAKI-1 renal = system: CAKI-1 renal
CCRF-CEM leukemia = system: CCRF-CEM leukemia
COLO 205 colon = system: COLO 205 colon
DU-145 prostate = system: DU-145 prostate
EKVX NSCLC = system: EKVX NSCLC
HCC-2998 colon = system: HCC-2998 colon
HCT-116 colon = system: HCT-116 colon
HCT-15 colon = system: HCT-15 colon
HL-60(TB) leukemia = system: HL-60(TB) leukemia
HOP-62 NSCLC = system: HOP-62 NSCLC
HOP-92 NSCLC = system: HOP-92 NSCLC
HS 578T breast = system: HS 578T breast
HT29 colon = system: HT29 colon
IGROV1 ovarian = system: IGROV1 ovarian
KM12 colon = system: KM12 colon
LOX IMVI melanoma = system: LOX IMVI melanoma
M14 melanoma = system: M14 melanoma
MALME-3M melanoma = system: MALME-3M melanoma
MCF7 breast = system: MCF7 breast
MDA-MB-231 breast = system: MDA-MB-231 breast
MDA-MB-435 = system: MDA-MB-435
MOLT-4 leukemia = system: MOLT-4 leukemia
NCI-H226 lung = system: NCI-H226 lung

Cc1nc2cc(-n3c(-c4ccc(F)cc4)nc4ccccc4c3=O)ccc2n1Cc1ccccc1
GI50 (786-0 renal): 1.86 µM | TGI (786-0 renal): 3.62 µM | GI50 (A498 renal): 2.23 µM | TGI (A498 renal): 11.6 µM | GI50 (A549 NSCLC): 2.02 µM | TGI (A549 NSCLC): 4.66 µM | GI50 (ACHN renal): 2.05 µM | TGI (ACHN renal): 4.63 µM | GI50 (BT-549 breast): 1.71 µM | TGI (BT-549 breast): 3.48 µM | GI50 (CAKI-1 renal): 1.89 µM | TGI (CAKI-1 renal): 4.51 µM | GI50 (CCRF-CEM leukemia): 8.34 µM | TGI (CCRF-CEM leukemia): > 100 µM | GI50 (COLO 205 colon): 2.11 µM | TGI (COLO 205 colon): 5.1 µM | GI50 (DU-145 prostate): 2.6 µM | TGI (DU-145 prostate): 6.95 µM | GI50 (EKVX NSCLC): 6.28 µM | TGI (EKVX NSCLC): 49.9 µM | GI50 (HCC-2998 colon): > 100 µM | TGI (HCC-2998 colon): > 100 µM | GI50 (HCT-116 colon): 1.57 µM | TGI (HCT-116 colon): 3.39 µM | GI50 (HCT-15 colon): 2.94 µM | TGI (HCT-15 colon): 11.6 µM | GI50 (HL-60(TB) leukemia): 13 µM | TGI (HL-60(TB) leukemia): > 100 µM | GI50 (HOP-62 NSCLC): 2.44 µM | TGI (HOP-62 NSCLC): 6.98 µM | GI50 (HOP-92 NSCLC): 2.47 µM | TGI (HOP-92 NSCLC): 8.25 µM | GI50 (HS 578T breast): 2.68 µM | TGI (HS 578T breast): 8.6 µM | GI50 (HT29 colon): 2.23 µM | TGI (HT29 colon): 4.71 µM | GI50 (IGROV1 ovarian): 5.9 µM | TGI (IGROV1 ovarian): 31.2 µM | GI50 (KM12 colon): 3.12 µM | TGI (KM12 colon): 15.7 µM | GI50 (LOX IMVI melanoma): 1.97 µM | TGI (LOX IMVI melanoma): 4.59 µM | GI50 (M14 melanoma): 2.13 µM | TGI (M14 melanoma): 4.62 µM | GI50 (MALME-3M melanoma): 2.36 µM | TGI (MALME-3M melanoma): 5.36 µM | GI50 (MCF7 breast): 2.24 µM | TGI (MCF7 breast): 5.56 µM | GI50 (MDA-MB-231 breast): 1.91 µM | TGI (MDA-MB-231 breast): 5.09 µM | GI50 (MDA-MB-435): 1.98 µM | TGI (MDA-MB-435): 4.21 µM | GI50 (MOLT-4 leukemia): 3.52 µM | TGI (MOLT-4 leukemia): > 100 µM | GI50 (NCI-H226 lung): 2.02 µM | TGI (NCI-H226 lung): 6.51 µM
